Measured values: EP4014964A1, “TOPICAL FORMULATION” (Almirall S.A., priority 2020, dated 2022)

System: immortalized human sebocyte cell line, SZ95
Assay: In vitro assay of inhibition of Lipid Synthesis
Assay type: cell-based
Details: SZ95 cells, lipid synthesis induced by 75µM AA, 48h, neutral lipids measured with AdipoRed fluorescence
Description: To evaluate the inhibition of lipid synthesis, the immortalized human sebocyte cell line, SZ95 (stablished by Zouboulis, C.C. et al J Invest Dermatol 1999; 113: 1011-20), was treated with arachidonic acid (AA) in presence or absence of compound. Lipids were detected by using a lipid sensing fluorophore.
10k cells were plated in 384 well microtiter plates and incubated at 37 °C and 5% CO2 in DMEM/F12 supplemented with 10% FBS, 1.25ng/ml of rhEGF and GA-1000, using the MicroClime Lids from Labcyte to reduce the edge effect, before of compound and stimulus addition.
After 24h, compounds were dissolved in DMSO 100%. Then the stocks were serial diluted 1/3 in DMSO 100%, and this battery of solutions were diluted 1/10 in culture medium. Later, compounds dissolved in culture media were added over cells, diluting the solutions prepared 1/40 in the final volume of the assay. Then, cells and compounds were preincubated for 30 min at 37 °C and 5% CO2. After this prior incubation, the lipid synthesis was induced by 75µM of AA final solution, preparing a solution 10x in culture media containing a 1.25% of DMSO. Finally, SZ95 treated were incubated for 48h at 37°C and 5% CO2.
Neutral lipids were measured using AdipoRedTM, purchased from Lonza. To do that, cells were washed with PBS and incubated with a solution of AdipoRedTM (final dilution 1/80 in PBS) for 30 min at room temperature. After the staining process, the fluorescence intensity (FI) was quantified using a fluorescence plate reader (excitation 485 nm; emission 535).
Activity of compounds was calculated as % of inhibition considering the maximal fluorescence for AA-stimulated cells and the minimum fluorescence for unstimulated cells as controls.

Row | Compound | IC50 (Homo sapiens) | IC50
1 | CCCCCCCc1ccc(-c2c[nH]c(C(=O)O)c2F)c(Cl)c1 [Example 1, 4-(2-Chloro-4-heptylphenyl)-3-fluoro-1H-pyrrole-2-carboxylic acid] | < 200 nM | 
2 | CCCCCCCc1ccc(-c2c[nH]c(C(=O)O)c2F)c(CC)c1 [Example 2, 4-(2-Ethyl-4-heptylphenyl)-3-fluoro-1H-pyrrole-2-carboxylic acid] | < 200 nM | 
3 | CCCCCCCCCCCCCc1c[nH]c(C(=O)O)c1F [Example 3, 3-Fluoro-4-tridecyl-1H-pyrrole-2-carboxylic acid] | < 50 nM | 
4 | CCCCCCCCC1CCC(c2c[nH]c(C(=O)O)c2F)CC1 (stereo not shown) [Example 4, 3-Fluoro-4-((1r,4s)-4-octylcyclohexyl)-1H-pyrrole-2-carboxylic acid] |  | < 200 nM
